Experimental data published in patent US11225484B2, “Substituted octahydropyrrolo[3,4-b]pyrroles as antagonists of the muscarinic acetylcholine receptor M4” (Vanderbilt University, priority 2017, dated 2022).

Columns and labels:
Rat M4 = molecular target: T1, Rat M4 (Rattus norvegicus, UniProt P08485); experiment: mAChR M4 cell-based functional assay (calcium flux, rat M4/Gqi5/CHO cells); settings: for remaining activity at 30 µM: CHO, % ACh maximum at 30 μM, read-out: Emin (%) rat M4; for IC50: antagonist mode, decrease of the response to an EC80 concentration of acetylcholine, CHO-K1 cells with Gqi5
T1 construct: expressed in transfected cells; host or cells: CHO-K1 (ATCC), co-transfected with chimeric G protein Gqi5
T1 sequence (P08485 1-478): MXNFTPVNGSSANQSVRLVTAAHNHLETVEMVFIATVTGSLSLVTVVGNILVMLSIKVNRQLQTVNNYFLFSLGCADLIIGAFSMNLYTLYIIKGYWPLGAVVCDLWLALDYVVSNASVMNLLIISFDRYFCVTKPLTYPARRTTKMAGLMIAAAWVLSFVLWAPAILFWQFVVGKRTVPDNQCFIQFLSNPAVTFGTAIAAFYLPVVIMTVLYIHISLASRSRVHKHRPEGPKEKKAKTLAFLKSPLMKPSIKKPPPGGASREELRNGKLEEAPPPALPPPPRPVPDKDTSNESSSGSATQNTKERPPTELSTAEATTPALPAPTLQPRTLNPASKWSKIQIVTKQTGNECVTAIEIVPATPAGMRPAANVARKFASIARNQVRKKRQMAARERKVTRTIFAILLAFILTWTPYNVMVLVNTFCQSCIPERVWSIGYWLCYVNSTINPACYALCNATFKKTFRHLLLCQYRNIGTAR
Experimental: (§1) Human or rat M4 cDNA, along with the chimeric G protein Gqi5, were transfected into Chinese hamster ovary (CHO-K1) cells purchased from the American Type Culture Collection using Lipofectamine2000. M4/Gqi5/CHO cells were grown in Ham's F-12 medium containing 10% heat-inactivated fetal bovine serum (FBS), 20 mM HEPES, 500 μg/mL G418 sulfate, and 200 μg/mL Hygromycin B.
(§2) For high throughput measurement of agonist-evoked increases in intracellular calcium, CHO-K1 cells stably expressing muscarinic receptors were plated in growth medium lacking G418 and hygromycin at 15,000 cells/20 μL/well in Greiner 384-well black-walled, tissue culture (TC)-treated, clear-bottom plates (VWR). Cells were incubated overnight at 37° C. and 5% CO2. The next day, cells were washed using an ELX 405 (BioTek) with assay buffer; the final volume was then aspirated to 20 μL. Next, 20 μL of a 2.3 μM stock of Fluo-4/acetoxymethyl ester (Invitrogen, Carlsbad, Calif.), prepared as a 2.3 mM stock in DMSO and mixed in a 1:1 ratio with 10% (w/v) Pluronic F-127 and diluted in assay buffer, was added to the wells and the cell plates were incubated for 50 min at 37° C. and 5% CO2. Dye was removed by washing with the ELX 405 and the final volume was aspirated to 20 μL. Compound master plates were formatted in a 10 point concentration-response curve (CRC) format (1:3 dilutions) in 100% DMSO with a starting concentration of 10 or 1 mM using a BRAVO liquid handler (Agilent). Test compound CRCs were then transferred to daughter plates (240 nL) using the Echo acoustic plate reformatter (Labcyte, Sunnyvale, Calif.) and then diluted into assay buffer (40 μL) to a 2× stock using a Thermo Fisher Combi (Thermo Fisher Scientific, Waltham, Mass.).
(§3) Calcium flux was measured using the Functional Drug Screening System (FDSS) 6000 or 7000 (Hamamatsu Corporation, Tokyo, Japan) as an increase in the fluorescent static ratio. Compounds were applied to cells (20 μL, 2×) using the automated system of the FDSS at 2 seconds into the protocol and the data were collected at 1 Hz. At 143 s, 10 μL of an EC20 concentration of the muscarinic receptor agonist acetylcholine was added (5×), followed by the addition of 12 μL of an EC80 concentration of acetylcholine at the 268 s time point (5×). Agonist activity was analyzed as a concentration-dependent increase in calcium mobilization upon compound addition. Positive allosteric modulator activity was analyzed as a concentration-dependent increase in the EC20 acetylcholine response. Antagonist activity was analyzed as a concentration-dependent decrease in the EC80 acetylcholine response for the purposes of the tables herein, an IC50 (inhibitory concentration 50) was calculated as a concentration-dependent decrease of the response elicited by an EC80 concentration of acetylcholine, Concentration-response curves were generated using a four-parameter logistical equation in XLFit curve fitting software (IDBS, Bridgewater, N.J.) for Excel (Microsoft, Redmond, Wash.) or Prism (GraphPad Software, Inc., San Diego, Calif.) or the Dotmatics software platform (Dotmatics, Bishop's Stortford, UK).
(§4) Compounds were synthesized as described above. Activity (IC50 and Emin) was determined in the mAChR M4 cell-based functional assay as described above and the data are shown in Table 2. The compound number corresponds to the compound numbers used in Examples 1-3.

Human M4 = molecular target: T2, Human M4 (Homo sapiens, UniProt P08173); experiment: mAChR M4 cell-based functional assay (calcium flux, human M4/Gqi5/CHO cells); settings: for remaining activity at 30 µM: CHO, % ACh maximum at 30 μM, read-out: Emin (%) human M4; for IC50: antagonist mode, decrease of the response to an EC80 concentration of acetylcholine, CHO-K1 cells with Gqi5
T2 construct: expressed in transfected cells; host or cells: CHO-K1 (ATCC), co-transfected with chimeric G protein Gqi5
T2 sequence (P08173 1-479): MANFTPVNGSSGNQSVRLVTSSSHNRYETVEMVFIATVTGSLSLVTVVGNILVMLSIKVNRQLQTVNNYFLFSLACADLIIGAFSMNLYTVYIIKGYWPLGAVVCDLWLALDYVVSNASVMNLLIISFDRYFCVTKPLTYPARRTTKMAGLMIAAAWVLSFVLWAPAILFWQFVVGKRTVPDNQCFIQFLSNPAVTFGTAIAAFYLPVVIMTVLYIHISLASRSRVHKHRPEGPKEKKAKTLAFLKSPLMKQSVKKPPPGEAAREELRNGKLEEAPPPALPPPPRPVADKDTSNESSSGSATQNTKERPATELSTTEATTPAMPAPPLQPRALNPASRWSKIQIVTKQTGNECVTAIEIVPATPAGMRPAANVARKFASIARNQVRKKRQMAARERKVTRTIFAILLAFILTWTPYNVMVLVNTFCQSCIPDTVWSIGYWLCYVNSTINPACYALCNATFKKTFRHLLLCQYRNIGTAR
Experimental: as §1, §2, §3, §4

| Structure (SMILES) | remaining activity at 30 µM (Rat M4) [%] | IC50 (Rat M4) [nM] | remaining activity at 30 µM (Human M4) [%] | IC50 (Human M4) [nM] |
| --- | --- | --- | --- | --- |
| Cc1cnn(C)c1-c1ccc(N2CCC3CN(CC4CC5C=CC4C5)CC32)nn1 (stereo not drawn) [Compound 3, 5-(bicyclo[2.2.1]hept-5-en-2-ylmethyl)-1-(6-(1,4-dimethyl-1H-pyrazol-5-yl)pyridazin-3-yl)octahydropyrrolo[3,4-b]pyrrole] | 16.8 | 3570 | 4.28 | 800 |
| Cc1cnn(C)c1-c1ccc(N2CCC3CN(CC45CC6CC(CC(C6)C4)C5)CC32)nn1 (stereo not drawn) [Compound 1, 5-(Adamantan-1-ylmethyl)-1-(6-(1,4-dimethyl-1H-pyrazol-5-y)pyridazin-3-yl)octahydropyrrolo[3,4-b]pyrrole] | 4.61 | 509 | – | – |
| Cc1nn(C)cc1-c1ccc(N2CCC3CN(CC45CC6CC(CC(C6)C4)C5)CC32)nn1 (stereo not drawn) [Compound 16, 5-(adamantan-1-ylmethyl)-1-(6-(1,3-dimethyl-1H-pyrazol-4-yl)pyridazin-3-yl)octahydropyrrolo[3,4-b]pyrrole] | 4.09 | 753 | 4.02 | 191 |
| Cc1cnn(C)c1-c1ccc(N2CCC3CN(CC(c4ccccc4)c4ccccc4)CC32)nn1 (stereo not drawn) [Compound 14, 1-(6-(1,4-dimethyl-1H-pyrazol-5-yl)pyridazin-3-yl)-5-(2,2-diphenylethyl)octahydropyrrolo[3,4-b]pyrrole] | 48.3 | > 10000 | 8.96 | 9190 |
| CCc1ccncc1-c1ccc(N2CCC3CN(CC45CC6CC(CC(C6)C4)C5)CC32)nn1 (stereo not drawn) [Compound 15, 5-(adamantan-1-ylmethyl)-1-(6-(4-ethylpyridin-3-yl)pyridazin-3-yl)octahydropyrrolo[3,4-b]pyrrole] | 3.98 | 1710 | 4.18 | 899 |
| Cc1cnn(C)c1-c1ccc(N2CCC3CN(CC(C)c4ccccc4)CC32)nn1 (stereo not drawn) [Compound 11, 1-(6-(1,4-dimethyl-1H-pyrazol-5-yl)pyridazin-3-yl)-5-(2-phenylpropyl)octahydropyrrolo[3,4-b]pyrrole] | 55.5 | > 10000 | 15.1 | > 10000 |
| CCCCCCN1CC2CCN(c3ccc(-c4c(C)cnn4C)nn3)C2C1 (stereo not drawn) [Compound 13, 1-(6-(1,4-dimethyl-1H-pyrazol-5-yl)pyridazin-3-yl)-5-hexyloctahydropyrrolo[3,4-b]pyrrole] | 28.4 | > 10000 | 7.23 | 2150 |
| Cc1cnn(C)c1-c1ccc(N2CCC3CN(CCc4ccccc4)CC32)nn1 (stereo not drawn) [Compound 6, 1-(6-(1,4-ditnethyl-1H-pyrazol-5-yl)pyridazin-3-yl)-5-phenethyloctahydropyrrolo[3,4-b]pyrrole] | 30.9 | > 10000 | 7.19 | 1980 |
| Cc1cnn(C)c1-c1ccc(N2CCC3CN(Cc4ccccc4)CC32)nn1 (stereo not drawn) [Compound 5, 5-benzyl-1-(6-(1,4-dimethyl-1H-pyrazol-5-yl)pyridazin-3-yl)octahydropyrrolo[3,4-b]pyrrole] | – | – | 46.7 | > 10000 |
| Cc1cnn(C)c1-c1ccc(N2CCC3CN(CCC(C)c4ccccc4)CC32)nn1 (stereo not drawn) [Compound 9, 1-(6-(1,4-dimethyl-1H-pyrazol-5-yl)pyridazin-3-yl)-5-(3-phenylbutyl)octahydropyrrolo[3,4-b]pyrrole] | 6.32 | 2330 | 4.33 | 498 |
| Cc1cccnc1CN1CC2CCN(c3ccc(-c4c(C)cnn4C)nn3)C2C1 (stereo not drawn) [Compound 4, 1-(6-(1,4-dimethyl-1H-pyrazol-5-yl)pyridazin-3-yl)-5-((3-methylpyridin-2-yl)methyl)octahydropyrrolo[3,4-b]pyrrole] | 63.1 | > 10000 | 26.2 | > 10000 |

The remaining lines, values ahead:

| remaining activity at 30 µM (Rat M4) [%] | IC50 (Rat M4) [nM] | remaining activity at 30 µM (Human M4) [%] | IC50 (Human M4) [nM] | Structure (SMILES) |
| --- | --- | --- | --- | --- |
| 4.41 | 365 | 3.18 | 129 | Cc1nn(C)c(C)c1-c1ccc(N2CCC3CN(CC45CC6CC(CC(C6)C4)C5)CC32)nn1 (stereo not drawn) [Compound 19, 5-(adamantan-1-ylmethyl)-1-(6-(1,3,5-trimethyl-1H-pyrazol-4-yl)pyridazin-3-yl)octahydropyrrolo[3,4-b]pyrrole] |
| 49.1 | > 10000 | 20.2 | > 10000 | Fc1ccc(Cl)c(-c2ccc(N3CCC4CN(CC56CC7CC(CC(C7)C5)C6)CC43)nn2)c1 (stereo not drawn) [Compound 17, 5-(adamantan-1-ylmethyl)-1-(6-(2-chloro-5-fluorophenyl)pyridazin-3-yl)octahydropyrrolo[3,4-b]pyrrole] |
| 69.7 | > 10000 | 36.1 | > 10000 | Cc1cnn(C)c1-c1ccc(N2CCC3CN(CC4CCOCC4)CC32)nn1 (stereo not drawn) [Compound 22, 1-(6-(1,4-dimethyl-1H-pyrazol-5-yl)pyridazin-3-yl)-5-((tetrahydro-2H-pyran-4-yl)methyl)octahydropyrrolo[3,4-b]pyrrole] |
| 36.4 | > 10000 | 12 | > 10000 | Fc1ccc(-c2ccc(N3CCC4CN(CC56CC7CC(CC(C7)C5)C6)CC43)nn2)c(Cl)c1 (stereo not drawn) [Compound 18, 5-(adamantan-1-ylmethyl)-1-(6-(2-chloro-4-fluorophenyl)pyridazin-3-yl)octahydropyrrolo[3,4-b]pyrrole] |
| 3.71 | 601 | 4.08 | 147 | Cc1cnn(C)c1-c1ccc(N2CC[C@@H]3CN(CC45CC6CC(CC(C6)C4)C5)C[C@@H]32)nn1 [Compound 21, (3aR,6aR)-5-(adamantan-1-ylmethyl)-1-(6-(1,4-dimethyl-1H-pyrazol-5-yl)pyridazin-3-yl)octahydropyrrolo[3,4-b]pyrrole] |
